Results from US20260207654A1, “HEPARAN SULFATE AND ITS MIMETICS AS CHEMOKINE INHIBITORS” (INDIAN INSTITUTE OF SCIENCE EDUCATION AND RESEARCH, priority 2021, published 2026).

Tests used:
Assay in all cases: Chemokine glycan microarray binding assay
Conditions in all cases: maximum RFU set as 100% binding, average across 2 glycan concentrations and 3 chemokine dilutions (n=6)
CCL28 = molecular target: T1, CCL28 (Homo sapiens, UniProt Q9NRJ3)
T1 sequence (Q9NRJ3 20-127): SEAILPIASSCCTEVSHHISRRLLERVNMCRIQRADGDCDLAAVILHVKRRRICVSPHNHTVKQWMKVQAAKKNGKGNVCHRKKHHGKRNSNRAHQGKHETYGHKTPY
Protocol: (§1) Microarray Studies: The compounds of the present invention were covalently immobilized on epoxy group collated glass slides. Slides were rehydrated with dH2O and incubated for 30 min in a staining dish with 50° C. prewarmed ethanolamine (0.05 M) in Tris-HCl (0.1 M, pH 9.0) to block the remaining reactive epoxy groups on the slide surface, then washed with 50° C. prewarmed dH2O. Slides were centrifuged at 200 g for 3 min, then fitted with the ProPlate Multi-Array 16-well slide module (Grace Bio-lab P37001) to divide into the subarrays (blocks). Slides were washed with PBST (0.1% Tween 20), aspirated, and blocked with 200 μL/subarray of blocking buffer (PBS pH 7.3+1% w/v ovalbumin) for 1 h at RT with gentle shaking. Next, the blocking solution was aspirated and 100 μL/block of primary chemokines diluted in PBS pH 7.3+1% w/v ovalbumin were incubated with gentle shaking for 2 hours at RT. Slides were washed 4 times with PBST, then with PBS (without Tween-20) for 2 min. Bound antibodies were detected by incubating with biotinylated secondary detections (1 ng/μL) diluted in PBS, 200 μL/block at RT for 1 h. Slides were washed 4 times with PBST, then with PBS (without Tween-20) for 2 min and biotinylated antibodies were detected with Cy3-SA ([…]). Slides were washed 4 times with PBST, then with PBS for 10 min followed by removal from the ProPlate Multi-Array slide module and immediately dipping in a staining dish with dH2O for 10 min with shaking. The slides were then centrifuged at 200 g for 3 min, and the dry slides immediately scanned. Binding was tested at three serial dilutions, then detected with the relevant biotinylated secondary antibody (1 μg/mL) followed by Cy3-strepavidin (1.5 μg/mL). Arrays were scanned and RFUs were calculated of chemokines binding to 100 μM glycans printed at four replicates. Rank binding of chemokines (each at three dilutions) to glycans printed at four replicates each was calculated and summarized in Table 1. For each binding assay per printed block, the maximum RFU was determined and set as 100% binding. Then, binding to all other glycans in the same block was ranked in comparison to the maximal binding, and average rank binding (and SEM) for each glycan across the three examined concentrations of each chemokine was calculated. This analysis allowed to compare the glycan-binding profiles of the different chemokines and dissect their binding preferences.
(§2) Table 1. Chemokine glycan microarray binding assay. Binding was tested at 3 serial dilutions, then detected with the relevant biotinylated secondary antibody (1 μg/ml) followed by Cy3-Strepavidin (1.5 μg/ml) (Table SX). Arrays were scanned, relative fluorescent units (RFU) obtained, and maximum RFU determined and set as 100% binding. Then rank binding (per printed glycan per concentration, per each chemokine dilution, per printed block) was determined. Since each glycans was printed at 2 concentration, 100% binding was set separately for each concentration. Then, binding to all the other glycans at the same concentration was ranked in comparison to the maximal binding, and the average rank binding and SEM for each glycan across the two glycan concentrations and three examined dilutions of each chemokine was calculated (n=6, 2 glycan concentrations across 3 chemokine dilutions). This analysis allowed to compare the glycan binding profiles of the different chemokines and dissect their binding preferences. The mean rank is shown as a heatmap of all the examined binding assays together (red highest, blue lowest and white 50th percentile of ranking).

CXCL10 = molecular target: T2, CXCL10 (Homo sapiens, UniProt P02778)
T2 sequence (P02778 22-98): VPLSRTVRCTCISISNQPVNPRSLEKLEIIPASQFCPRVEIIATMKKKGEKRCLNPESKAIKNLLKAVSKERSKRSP
Protocol: as §1, §2

CCL13 = CCL13 (Homo sapiens, UniProt Q99616)
Protocol: as §1, §2

CCL21 = molecular target: T3, CCL21 (Homo sapiens, UniProt O00585)
T3 sequence (O00585 24-134): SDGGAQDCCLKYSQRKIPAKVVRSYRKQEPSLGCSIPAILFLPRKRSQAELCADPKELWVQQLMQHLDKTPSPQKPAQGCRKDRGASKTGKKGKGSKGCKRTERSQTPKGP
Protocol: as §1, §2

CCL5 = molecular target: T4, CCL5 (Homo sapiens, UniProt P13501)
T4 sequence (P13501 24-91): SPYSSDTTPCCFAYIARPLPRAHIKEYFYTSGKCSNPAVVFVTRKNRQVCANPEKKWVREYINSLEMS
Protocol: as §1, §2

CXCL12 = CXCL12 (Homo sapiens, UniProt P48061)
Protocol: as §1, §2

CCL7 = CCL7 (Homo sapiens, UniProt P80098)
Protocol: as §1, §2

CCL2 = CCL2 (Homo sapiens, UniProt P13500)
Protocol: as §1, §2

CXCL8 = molecular target: T5, CXCL8 (Homo sapiens, UniProt P10145)
T5 sequence (P10145 21-99): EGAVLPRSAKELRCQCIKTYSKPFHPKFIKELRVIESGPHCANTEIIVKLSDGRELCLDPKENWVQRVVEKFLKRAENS
Protocol: as §1, §2

CCL2, sequence (P13500 24-99, species assumed): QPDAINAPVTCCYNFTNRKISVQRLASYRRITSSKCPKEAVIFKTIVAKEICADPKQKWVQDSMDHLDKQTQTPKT
CCL13, sequence (Q99616 17-98, species assumed): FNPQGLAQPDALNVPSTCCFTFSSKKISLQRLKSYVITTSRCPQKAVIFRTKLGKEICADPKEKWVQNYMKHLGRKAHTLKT
CCL7, sequence (P80098 24-99, species assumed): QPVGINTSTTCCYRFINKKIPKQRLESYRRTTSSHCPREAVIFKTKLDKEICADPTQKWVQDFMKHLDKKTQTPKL
CXCL12, sequence (P48061 22-93, species assumed): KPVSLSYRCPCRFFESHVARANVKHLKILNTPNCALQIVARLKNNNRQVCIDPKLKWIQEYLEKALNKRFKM

## NCCOCCO[C@@H]1O[C@@H](C(=O)O)[C@@H](O[C@@H]2O[C@@H](C(=O)O)[C@@H](OS(=O)(=O)O)[C@H](O)[C@H]2O)[C@H](O)[C@H]1O [Example 5, Ethoxy-2-aminoethoxyl-O-((4-O-sulfonato)-α-L-idopyranosyl Uronic Acid-α(1→4))-α-L-idopyranoside Uronic Acid]
CCL28
  mean rank binding to CCL28: 80%
CXCL10
  mean rank binding to CXCL10: 57%
CCL13
  mean rank binding to CCL13: 81%
CCL21
  mean rank binding to CCL21: 62%
CCL5
  mean rank binding to CCL5: 15%
CXCL12
  mean rank binding to CXCL12: 64%
CCL7
  mean rank binding to CCL7: 58%
CCL2
  mean rank binding to CCL2: 23%
CXCL8
  mean rank binding to CXCL8: 62%

## NCCOCCO[C@@H]1OC(C(=O)O)[C@@H](O[C@@H]2OC(C(=O)O)[C@@H](O)C(O)C2O)C(O)C1O (stereo partly drawn) [Example 4, Ethoxy-2-aminoethoxyl-O-(α-L-idopyranosyl Uronic Acid-α(1→4))-α-L-idopyranosyl Uronic Acid]
CCL28
  mean rank binding to CCL28: 56%
CXCL10
  mean rank binding to CXCL10: 44%
CCL13
  mean rank binding to CCL13: 67%
CCL21
  mean rank binding to CCL21: 48%
CCL5
  mean rank binding to CCL5: 2%
CXCL12
  mean rank binding to CXCL12: 56%
CCL7
  mean rank binding to CCL7: 33%
CCL2
  mean rank binding to CCL2: 2%
CXCL8
  mean rank binding to CXCL8: 12%

## NCCOCCO[C@@H]1OC(C(=O)O)[C@@H](O[C@@H]2OC(C(=O)O)[C@@H](O[C@@H]3OC(C(=O)O)[C@@H](O[C@@H]4OC(C(=O)O)[C@@H](O)C(O)C4O)C(O)C3O)C(O)C2O)C(O)C1O (stereo partly drawn) [Example 10, Ethoxy-2-aminoethoxyl-O-(α-L-idopyranosyl Uronic Acid-α(1→4)-α-L-idopyranosyluronic acid-α(1→4)-α-L-idopyranosyluronic acid-α(1→4))-α-L-idopyranoside Uronic Acid]
CCL28
  mean rank binding to CCL28: 76%
CXCL10
  mean rank binding to CXCL10: 96%
CCL13
  mean rank binding to CCL13: 88%
CCL21
  mean rank binding to CCL21: 86%
CCL5
  mean rank binding to CCL5: 86%
CXCL12
  mean rank binding to CXCL12: 98%
CCL7
  mean rank binding to CCL7: 87%
CCL2
  mean rank binding to CCL2: 69%
CXCL8
  mean rank binding to CXCL8: 83%

## NCCOCCO[C@@H]1OC(C(=O)O)[C@@H](O[C@@H]2OC(C(=O)O)[C@@H](O[C@@H]3OC(C(=O)O)[C@@H](O)C(O)C3O)C(O)C2O)C(O)C1O (stereo partly drawn) [Example 7, Ethoxy-2-aminoethoxyl-O-(α-L-idopyranosyl Uronic Acid-α(1→4)-α-L-idopyranosyl Uronic Acid-α(1→4))-α-L-idopyranoside Uronic Acid]
CCL28
  mean rank binding to CCL28: 80%
CXCL10
  mean rank binding to CXCL10: 78%
CCL13
  mean rank binding to CCL13: 86%
CCL21
  mean rank binding to CCL21: 83%
CCL5
  mean rank binding to CCL5: 30%
CXCL12
  mean rank binding to CXCL12: 92%
CCL7
  mean rank binding to CCL7: 75%
CCL2
  mean rank binding to CCL2: 36%
CXCL8
  mean rank binding to CXCL8: 63%

## NCCCO[C@@H]1OC(C(=O)O)[C@@H](O[C@H]2OC(CO)[C@@H](O[C@@H]3OC(C(=O)O)[C@@H](O[C@H]4OC(CO)[C@@H](O)C(O)C4N)C(O)C3O)C(O)C2N)C(O)C1O (stereo partly drawn) [Example 15, 3-Aminopropyl-O-[(2-amino-2-deoxy-α-D-glucopyranosyl)-(1→4)-O-(α-L-idopyranosyluronate)-(1→4)-O-(2-amino-2-deoxy-α-D-glucopyranosyl)]-(1→4)-O-α-L-idopyranosiduronate]
CCL28
  mean rank binding to CCL28: 36%
CXCL10
  mean rank binding to CXCL10: 39%
CCL13
  mean rank binding to CCL13: 64%
CCL21
  mean rank binding to CCL21: 62%
CCL5
  mean rank binding to CCL5: 3%
CXCL12
  mean rank binding to CXCL12: 51%
CCL7
  mean rank binding to CCL7: 45%
CCL2
  mean rank binding to CCL2: 3%
CXCL8
  mean rank binding to CXCL8: 13%

## NCCOCCO[C@@H]1O[C@@H](C(=O)O)[C@@H](O[C@@H]2O[C@@H](C(=O)O)[C@@H](OS(=O)(=O)O)[C@H](O)[C@H]2OS(=O)(=O)O)[C@H](O)[C@H]1OS(=O)(=O)O [Example 6, Ethoxy-2-aminoethoxyl-O-((2,4-O-disulfonato)-α-L-idopyranosyl Uronic Acid-α(1→4)(2-sulfonato))-α-L-idopyroside Uronic Acid]
CCL28
  mean rank binding to CCL28: 84%
CXCL10
  mean rank binding to CXCL10: 67%
CCL13
  mean rank binding to CCL13: 94%
CCL21
  mean rank binding to CCL21: 71%
CCL5
  mean rank binding to CCL5: 38%
CXCL12
  mean rank binding to CXCL12: 79%
CCL7
  mean rank binding to CCL7: 55%
CCL2
  mean rank binding to CCL2: 25%
CXCL8
  mean rank binding to CXCL8: 73%

## NCCOCCO[C@@H]1O[C@@H](C(=O)O)[C@@H](O[C@@H]2O[C@@H](C(=O)O)[C@@H](O[C@@H]3O[C@@H](C(=O)O)[C@@H](O[C@@H]4O[C@@H](C(=O)O)[C@@H](OS(=O)(=O)O)[C@H](O)[C@H]4O)[C@H](O)[C@H]3O)[C@H](O)[C@H]2O)[C@H](O)[C@H]1O [Example 11, Ethoxy-2-aminoethoxyl-O-(4-O-sulfonato)-α-L-idopyranosyl Uronic Acid-α(1→4)-α-L-Idopyranosyl Uronic Acid-α(1→4)-α-L-idopyranosyl Uronic Acid-α(1→4)-α-L-idopyranoside Uronic Acid]
CCL28
  mean rank binding to CCL28: 84%
CXCL10
  mean rank binding to CXCL10: 74%
CCL13
  mean rank binding to CCL13: 67%
CCL21
  mean rank binding to CCL21: 80%
CCL5
  mean rank binding to CCL5: 80%
CXCL12
  mean rank binding to CXCL12: 82%
CCL7
  mean rank binding to CCL7: 79%
CCL2
  mean rank binding to CCL2: 67%
CXCL8
  mean rank binding to CXCL8: 95%
